pEC50: −log10 of the molar value. Read-outs that look alike come from different tables or passages of the source.
Experiments:
Type in all cases: cell-based
ΔF508-CFTR [1] = target: T1, ΔF508-CFTR (Homo sapiens, UniProt P13569, DEL508-508); assay: CFTR cell surface levels using HRP-tagged ΔF508-CFTR expressing CFBE cells, intrinsic corrector capacity; set-up: % Activation: concentration or dose not given beside the values; details: HRP-tagged ΔF508-CFTR expressing CFBE41o- cells, compound alone (intrinsic corrector capacity), 20 hours at 33° C.; for pEC50: read-out: EC50
T1 construct: host or cells: CFBE41o-, doxycycline-inducible
T1 sequence (P13569 with tags, fused parts or gaps DEL508-508): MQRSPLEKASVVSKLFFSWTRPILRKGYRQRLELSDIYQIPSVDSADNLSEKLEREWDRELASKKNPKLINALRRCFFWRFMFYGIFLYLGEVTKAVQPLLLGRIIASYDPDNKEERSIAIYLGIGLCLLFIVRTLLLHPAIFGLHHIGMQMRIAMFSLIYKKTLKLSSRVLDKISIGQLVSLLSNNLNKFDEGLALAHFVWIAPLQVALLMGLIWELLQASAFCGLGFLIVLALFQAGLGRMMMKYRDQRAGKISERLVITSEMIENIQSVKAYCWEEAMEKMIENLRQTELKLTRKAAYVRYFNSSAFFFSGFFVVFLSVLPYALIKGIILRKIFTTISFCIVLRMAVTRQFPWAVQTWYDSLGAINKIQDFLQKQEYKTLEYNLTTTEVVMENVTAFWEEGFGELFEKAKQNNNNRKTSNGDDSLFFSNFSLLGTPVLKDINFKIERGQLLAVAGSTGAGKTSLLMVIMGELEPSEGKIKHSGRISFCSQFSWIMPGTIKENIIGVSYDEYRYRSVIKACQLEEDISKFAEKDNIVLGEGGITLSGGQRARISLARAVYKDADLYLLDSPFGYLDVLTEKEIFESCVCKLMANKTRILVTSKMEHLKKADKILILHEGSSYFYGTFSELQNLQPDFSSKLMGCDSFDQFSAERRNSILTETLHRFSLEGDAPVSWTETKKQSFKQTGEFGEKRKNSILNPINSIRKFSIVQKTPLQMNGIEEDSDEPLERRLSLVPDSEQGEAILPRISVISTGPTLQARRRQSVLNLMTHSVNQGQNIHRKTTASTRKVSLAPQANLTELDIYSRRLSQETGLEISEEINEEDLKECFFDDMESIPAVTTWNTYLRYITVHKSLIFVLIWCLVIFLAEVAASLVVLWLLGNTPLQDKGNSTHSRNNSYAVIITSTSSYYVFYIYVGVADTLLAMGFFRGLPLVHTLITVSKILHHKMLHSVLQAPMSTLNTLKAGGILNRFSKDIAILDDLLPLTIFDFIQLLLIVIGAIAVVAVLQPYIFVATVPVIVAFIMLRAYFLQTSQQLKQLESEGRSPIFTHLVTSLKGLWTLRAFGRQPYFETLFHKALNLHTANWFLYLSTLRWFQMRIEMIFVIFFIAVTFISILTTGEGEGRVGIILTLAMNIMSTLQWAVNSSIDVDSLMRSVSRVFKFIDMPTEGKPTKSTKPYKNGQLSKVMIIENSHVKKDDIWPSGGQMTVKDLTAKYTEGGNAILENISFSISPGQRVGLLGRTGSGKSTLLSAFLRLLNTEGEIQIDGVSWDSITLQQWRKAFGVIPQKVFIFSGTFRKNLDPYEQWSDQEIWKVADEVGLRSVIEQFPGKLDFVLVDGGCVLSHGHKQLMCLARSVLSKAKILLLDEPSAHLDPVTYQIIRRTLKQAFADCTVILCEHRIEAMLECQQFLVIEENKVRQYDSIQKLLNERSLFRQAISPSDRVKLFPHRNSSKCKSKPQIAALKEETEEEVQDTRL
How it was run: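 Read-out: chemiluminescent HRP activity of ECL4-HRP-tagged ΔF508-CFTR at the cell surface, 15 min substrate in dark. Normalized as 100×(sample−DMSO)/(positive control−DMSO).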

ΔF508-CFTR [2] = target: T1, ΔF508-CFTR; assay: CFTR cell surface levels using HRP-tagged ΔF508-CFTR expressing CFBE cells, in the presence of a co-corrector; details: HRP-tagged ΔF508-CFTR CFBE cells, in the presence of 3 μM co-corrector; for pEC50: read-out: EC50
How it was run: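 Chemiluminescent read-out of surface HRP (15 min, dark) after PBS washes. Activity is normalized as 100×(sample−DMSO)/(3 μM co-corrector alone−DMSO).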

CFTR ΔF508 = target: T2, CFTR ΔF508 (Homo sapiens, UniProt P13569, DEL508-508); assay: Chronic TECC assay, primary bronchial epithelial cells of CF patients homozygous for CFTR ΔF508 (corrector, co-corrector and potentiator); details: chronic TECC; for % Activity at 3 μM (AUC**): test compound at 3 μM
T2 construct: bronchial epithelial cells isolated from CF patients homozygous for the CFTR ΔF508 mutation; McGill University; Asterand; University of North Carolina hAEC-CF; host or cells: primary human bronchial epithelial cells from CF patients homozygous for ΔF508, differentiated at air-liquid interface
T2 sequence (P13569 with tags, fused parts or gaps DEL508-508): as above
How it was run: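 Primary bronchial epithelial cells from ΔF508-homozygous CF patients on collagen IV-coated Transwells were chronically treated with test compound plus corrector and potentiator, which were re-added before recording. Ieq was derived from PD and Rt in NaCl-Ringer, pH 7.4, at 37° C, with apical amiloride and bilateral forskolin, recorded every 2 min over 20 min. Ieq increase was normalized to controls, and EC50 was taken from per-well concentrations.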

[3] = test compound at 1 μM, AUC = full area under the curve upon forskolin stimulation
[4] = AUC = full area under the curve upon forskolin stimulation, read-out: EC50 (nM) (AUC**)
[5] = AUC = full area under the curve upon forskolin stimulation

Row | SMILES | % Activation (ΔF508-CFTR [1]) [%] | pEC50 (ΔF508-CFTR [1]) | % Activation (ΔF508-CFTR [2]) [%] | pEC50 (ΔF508-CFTR [2]) | % Activity at 1 μM (AUC**) (CFTR ΔF508; [3]) [%] | EC50 (CFTR ΔF508; [4]) [nM] | % Activity at 3 μM (AUC**) (CFTR ΔF508; [5]) [%] | EC50 (CFTR ΔF508; Ieq = calculations based on the maximum current, read-out: EC50 (nM) (Ieq*)) | % Activity at 1 μM (Ieq*) (CFTR ΔF508; test compound at 1 μM, Ieq = calculations based on the maximum current) [%]
1 | COCC1CCN(c2cc(C(=O)NS(C)(=O)=O)nc3c2c(C(C)C)nn3-c2ccnc(N3CCOCC3)c2)CC1 [Compound 248, N-(methanesulfonyl)-4-[4-(methoxymethyl)piperidin-1-yl]-1-[2-(morpholin-4-yl)pyridin-4-yl]-3-(propan-2-yl)-1H-pyrazolo[3,4-b]pyridine-6-carboxamide] | 234.6 | 6.43 | 450.6 | 6.65 | 275.96 | – | – | – | –
2 | COCC1CCN(c2cc(C(=O)NS(=O)(=O)CCCN3CCCC3)nc3c2c(C(C)C)nn3-c2ccc(F)cc2)CC1 [Compound 291, 1-(4-fluorophenyl)-4-[4-(methoxymethyl)piperidin-1-yl]-3-(propan-2-yl)-N-[3-(pyrrolidin-1-yl)propane-1-sulfonyl]-1H-pyrazolo[3,4-b]pyridine-6-carboxamide] | 219.5 | 5.48 | 420.07 | 6.23 | 255.92 | – | – | – | –
3 | CN(C)S(=O)(=O)NC(=O)c1cc(N2CCN(c3ccncc3)CC2)c2c(C3CCC3)nn(C3CCCCC3)c2n1 [Compound 469, 3-cyclobutyl-1-cyclohexyl-N-(dimethylsulfamoyl)-4-[4-(pyridin-4-yl)piperazin-1-yl]-1H-pyrazolo[3,4-b]pyridine-6-carboxamide] | 253.8 | 6.69 | 469.4 | 6.90 | 293.3333 | 108 | – | – | –
4 | CS(=O)(=O)NC(=O)c1cc(C2CCN(C3CCOCC3)CC2)c2c(C3CCC3)nn(-c3ccc(F)cc3)c2n1 [Compound 599, 3-cyclobutyl-1-(4-fluorophenyl)-N-(methanesulfonyl)-4-[1-(oxan-4-yl)piperidin-4-yl]-1H-pyrazolo[3,4-b]pyridine-6-carboxamide] | 88.94 | 6.48 | 285.2 | 6.57 | 116.6667 | – | – | – | –
5 | CN(C)S(=O)(=O)NC(=O)c1cc(N2CCC(N3CCOCC3)CC2)c2c(C3CCC3)nn(-c3ccc4c(c3)OC(F)(F)O4)c2n1 [Compound 623, 3-cyclobutyl-1-(2,2-difluoro-2H-1,3-benzodioxol-5-yl)-N-(dimethylsulfamoyl)-4-[4-(morpholin-4-yl)piperidin-1-yl]-1H-pyrazolo[3,4-b]pyridine-6-carboxamide] | 238.53 | 6.95 | 424.77 | 7.25 | – | – | 433.3333 | – | –
6 | CS(=O)(=O)NC(=O)c1cc(N2CCC(N3CCOCC3)CC2)c2c(C3CCC3)nn(C3CCCCC3)c2n1 [Compound 418, 3-cyclobutyl-1-cyclohexyl-N-(methanesulfonyl)-4-[4-(morpholin-4-yl)piperidin-1-yl]-1H-pyrazolo[3,4-b]pyridine-6-carboxamide] | 321.3 | 6.49 | 512.9 | 6.66 | 196.6667 | 19.2 | – | – | –
7 | CC(C)c1nn(-c2ccc(F)cc2)c2nc(C(=O)NS(C)(=O)=O)cc(N3CCC(C(C)(C)O)CC3)c12 [Compound 304, 1-(4-fluorophenyl)-4-[4-(2-hydroxypropan-2-yl)piperidin-1-yl]-N-(methanesulfonyl)-3-(propan-2-yl)-1H-pyrazolo[3,4-b]pyridine-6-carboxamide] | 308.2 | 6.69 | 507 | 7.25 | 194.54 | – | – | – | –
8 | COCCS(=O)(=O)NC(=O)c1cc(-c2ccc(CN3CCOCC3)cc2)c2c(OC(C)C)nn(C3CCCCC3)c2n1 [Compound 405, 1-cyclohexyl-N-(2-methoxyethanesulfonyl)-4-{4-[(morpholin-4-yl)methyl]phenyl}-3-[(propan-2-yl)oxy]-1H-pyrazolo[3,4-b]pyridine-6-carboxamide] | 160.8 | 6.72 | 326.9 | 6.99 | 323.3333 | – | – | – | –
9 | COCCS(=O)(=O)NC(=O)c1cc(N2CCC(CN3CCOCC3)CC2)c2c(C3CCC3)nn(-c3ccc(F)cc3)c2n1 [Compound 447, 3-cyclobutyl-1-(4-fluorophenyl)-N-(2-methoxyethanesulfonyl)-4-{4-[(morpholin-4-yl)methyl]piperidin-1-yl}-1H-pyrazolo[3,4-b]pyridine-6-carboxamide] | 330.9 | 6.61 | 543.1 | 7.19 | 330 | – | – | – | –
10 | CN(C)S(=O)(=O)NC(=O)c1cc(C2CCC(N3CCOCC3)CC2)c2c(C3CCC3)nn(-c3ccccc3)c2n1 (stereo not shown) [Compound 649, 3-cyclobutyl-N-(dimethylsulfamoyl)-4-[4-(morpholin-4-yl)cyclohexyl]-1-phenyl-1H-pyrazolo[3,4-b]pyridine-6-carboxamide] | 69.12 | 6.43 | 231.7 | 6.82 | – | – | 224.5026 | – | –
11 | COCC1CCN(c2cc(C(=O)NS(=O)(=O)N(C)C)nc3c2c(C2CCC2)nn3-c2ccccc2)CC1 [Compound 402, 3-cyclobutyl-N-(dimethylsulfamoyl)-4-[4-(methoxymethyl)piperidin-1-yl]-1-phenyl-1H-pyrazolo[3,4-b]pyridine-6-carboxamide] | 303.5 | 6.51 | 471.42 | 6.93 | 345.045 | 12.1 | – | – | –
12 | COC1CN(C2CCN(c3cc(C(=O)NS(=O)(=O)N(C)C)nc4c3c(C3CCC3)nn4-c3ccc(F)cc3)CC2)C1 [Compound 570, 3-cyclobutyl-N-(dimethylsulfamoyl)-1-(4-fluorophenyl)-4-[4-(3-methoxyazetidin-1-yl)piperidin-1-yl]-1H-pyrazolo[3,4-b]pyridine-6-carboxamide] | 235.8 | 6.30 | 412.9 | 6.68 | – | – | 377.5594 | – | –
13 | COCC1CCN(c2cc(C(=O)NS(=O)(=O)N3CCC(F)CC3)nc3c2c(C2CCC2)nn3-c2ccccc2)CC1 [Compound 399, 3-cyclobutyl-N-(4-fluoropiperidine-1-sulfonyl)-4-[4-(methoxymethyl)piperidin-1-yl]-1-phenyl-1H-pyrazolo[3,4-b]pyridine-6-carboxamide] | 237.5 | 7.14 | 388.77 | 7.36 | 244.7508 | – | – | – | –
14 | CC(C)Oc1nn(C2CCCCC2)c2nc(C(=O)NS(C)(=O)=O)cc(-c3ccc(C(=O)N4CCN(C)CC4)cc3)c12 [Compound 422, 1-cyclohexyl-N-(methanesulfonyl)-4-[4-(4-methylpiperazine-1-carbonyl)phenyl]-3-[(propan-2-yl)oxy]-1H-pyrazolo[3,4-b]pyridine-6-carboxamide] | 222.8 | 6.50 | 434.33 | 6.69 | 320 | – | – | – | –
15 | CC(C)c1nn(-c2cccc(N3CCCC3)c2)c2nc(C(=O)NS(C)(=O)=O)cc(-c3ccc(N(C)C4CCOCC4)cc3)c12 [Compound 110, N-(methanesulfonyl)-4-{4-[methyl(oxan-4-yl)amino]phenyl}-3-(propan-2-yl)-1-[3-(pyrrolidin-1-yl)phenyl]-1H-pyrazolo[3,4-b]pyridine-6-carboxamide] | 451.8 | 6.45 | 665.7 | 6.47 | – | – | – | < 30 | 170
16 | CC(=O)N1CCN(C2CCN(c3cc(C(=O)NS(=O)(=O)N(C)C)nc4c3c(C3CCC3)nn4-c3ccc(F)cc3)CC2)CC1 [Compound 493, 4-[4-(4-acetylpiperazin-1-yl)piperidin-1-yl]-3-cyclobutyl-N-(dimethylsulfamoyl)-1-(4-fluorophenyl)-1H-pyrazolo[3,4-b]pyridine-6-carboxamide] | 275.2 | 6.76 | 480.78 | 7.02 | 271.4141 | 371 | – | – | –
17 | CC(C)c1nn(-c2ccnc(N3CCOCC3)c2)c2nc(C(=O)NS(C)(=O)=O)cc(-c3ccc(N4CCOCC4)cc3)c12 [Compound 136, N-(methanesulfonyl)-4-[4-(morpholin-4-yl)phenyl]-1-[2-(morpholin-4-yl)pyridin-4-yl]-3-(propan-2-yl)-1H-pyrazolo[3,4-b]pyridine-6-carboxamide] | 262.38 | 6.81 | 428.1 | 7.14 | 233.2 | 23.5 | – | – | –

From patent US10259810B2, “N-sulfonylated pyrazolo[3,4-b]pyridin-6-carboxamides and method of use” (AbbVie S.à.r.l., priority 2015, dated 2019)
